Assays:
MCF7 [1] = assay: Growth inhibition of human MCF7 cells incubated for 48 hrs by MTT assay; format: functional
PC-3 [2] = assay: Antiproliferative activity against human PC-3 cells assessed inhibition of cell growth incubated for 48 hrs by MTT assay; format: functional, cell-based; details: PC-3, 48 h
SK-OV-3 [3] = assay: Antiproliferative activity against human SK-OV-3 cells assessed inhibition of cell growth incubated for 48 hrs by MTT assay; format: functional, cell-based; details: SK-OV-3, 48 h
MCF7 [4] = assay: Antiproliferative activity against human MCF7 cells assessed inhibition of cell growth incubated for 48 hrs by MTT assay; format: functional, cell-based; details: MCF7, 48 h
SK-OV-3 [5] = assay: Growth inhibition of human SK-OV-3 cells incubated for 48 hrs by MTT assay; format: functional
MRC5 [6] = assay: Growth inhibition of human MRC5 cells incubated for 48 hrs by MTT assay; format: functional
PC-3 [7] = assay: Growth inhibition of human PC-3 cells incubated for 48 hrs by MTT assay; format: functional
[8] = Growth inhibition of human UWB1289 cells harboring BRCA1 incubated for 48 hrs by MTT assay; format: functional
MRC5 [9] = assay: Antiproliferative activity against human MRC5 cells assessed inhibition of cell growth incubated for 48 hrs by MTT assay; format: functional, cell-based; details: MRC5, 48 h
[10] = Antiproliferative activity against human UWB1289 cells harboring BRCA1 assessed inhibition of cell growth incubated for 48 hrs by MTT assay; format: functional, cell-based; details: UWB1289, 48 h
LS174T = assay: Antiproliferative activity against human LS174T cells assessed inhibition of cell growth incubated for 48 hrs by MTT assay; format: functional, cell-based
LoVo = assay: Antiproliferative activity against human LoVo cells assessed inhibition of cell growth incubated for 48 hrs by MTT assay; format: functional, cell-based
HT-29 = assay: Antiproliferative activity against human HT-29 cells assessed inhibition of cell growth incubated for 48 hrs by MTT assay; format: functional, cell-based; details: HT-29, 48 h
MDA-MB-231 = assay: Antiproliferative activity against human MDA-MB-231 cells assessed inhibition of cell growth incubated for 48 hrs by MTT assay; format: functional, cell-based; details: MDA-MB-231, 48 h
MDA-MB-453 = assay: Antiproliferative activity against human MDA-MB-453 cells assessed inhibition of cell growth incubated for 48 hrs by MTT assay; format: functional, cell-based; details: MDA-MB-453, 48 h
HuP-T3 = assay: Antiproliferative activity against human HuP-T3 cells assessed inhibition of cell growth incubated for 48 hrs by MTT assay; format: functional, cell-based; details: HuP-T3, 48 h
HeLa = assay: Antiproliferative activity against human HeLa cells assessed inhibition of cell growth incubated for 48 hrs by MTT assay; format: functional, cell-based
[11] = Acute toxicity in ip dosed CB17 SCID mouse assessed as lethal dose; format: organism-based; set-up: LD20: unit not given here; details: in vivo
P388 = assay: Antitumor activity against mouse P388 cells xenografted in CB17 SCID mouse assessed as T/C ratio at 140 uM, ip administered as single dose measured after 17 days; format: functional; details: time 17 day
SK-OV-3 [12] = assay: Antitumor activity against human SK-OV-3 cells xenografted in CB17 SCID mouse assessed as reduction in tumor volume at 36 mg/kg, ip administered as single dose measured after 11 days (reference value: 790 +/- 65.6 mm3); format: functional; details: time 11 day
PC-3 [13] = assay: Antitumor activity against human PC-3 cells xenografted in CB17 SCID mouse assessed as reduction in tumor volume at 36 mg/kg, ip administered as single dose measured after 21 days (reference value: 683 +/- 47.3 mm3); format: functional; details: time 21 day
PC-3 [14] = assay: Antitumor activity against human PC-3 cells xenografted in CB17 SCID mouse assessed as tumor inhibition at 36 mg/kg, ip administered as single dose measured after 21 days; format: functional; details: PC-3, 504 h, time 21 day, read-out: TGI
SK-OV-3 [15] = assay: Antitumor activity against human SK-OV-3 cells xenografted in CB17 SCID mouse assessed as tumor inhibition at 36 mg/kg, ip administered as single dose measured after 11 days; format: functional; details: SK-OV-3, 264 h, time 11 day, read-out: TGI
SK-OV-3 [16] = assay: Antitumor activity against human SK-OV-3 cells xenografted in CB17 SCID mouse assessed as tumor inhibition at 140 uM, ip administered as single dose measured after 17 days; format: functional; details: SK-OV-3, 408 h, time 17 day, read-out: TGI

Compound | GI50 (MCF7 [1]) [µM] | TGI (MCF7 [1]) [µM] | IC50 (PC-3 [2]) [µM] | IC50 (SK-OV-3 [3]) [µM] | IC50 (MCF7 [4]) [µM] | GI50 (SK-OV-3 [5]) [µM] | TGI (SK-OV-3 [5]) [µM] | GI50 (MRC5 [6]) [µM] | TGI (MRC5 [6]) [µM] | GI50 (PC-3 [7]) [µM] | TGI (PC-3 [7]) [µM] | GI50 [8] [µM] | TGI [8] [µM] | IC50 (MRC5 [9]) [µM] | IC50 [10] [µM] | IC50 (LS174T) [µM] | IC50 (LoVo) [µM] | IC50 (HT-29) [µM] | IC50 (MDA-MB-231) [µM] | IC50 (MDA-MB-453) [µM] | further results
CC(=O)O[C@@H](COc1ccc(N(CCCl)CCCl)cc1)C(=O)O | 80 | > 100 | > 100 | > 100 | > 100 | > 100 | > 100 | 50 | > 100 | > 100 | > 100 | > 100 | > 100 | > 100 | > 100 |  |  |  |  |  | 
C[C@]12CC[C@H]3[C@@H](CCC4=CC(=O)NCC[C@@]43C)[C@@H]1CC[C@@H]2OC(=O)[C@@H](N)COc1ccc(N(CCCl)CCCl)cc1 |  |  |  | 1 |  |  |  |  |  |  |  |  |  |  | 1 | 1 | 1 | 1 | 1 | 1 | IC50 (HuP-T3): 1 µM; IC50 (HeLa): 1 µM; LD20 ([11]; ip): 12.5; LD50 ([11]; ip): 21; T/C (P388): 410.3
C[C@]12CC[C@H]3[C@@H](CCC4=CC(=O)NCC[C@@]43C)[C@@H]1CC[C@@H]2OC(=O)[C@@H](O)COc1ccc(N(CCCl)CCCl)cc1 | 1.5 | 3.8 | 11 | 9 | 8 | 1 | 3.5 | 3 | 10 | 2 | 4 | 1.2 | 4 | 22.5 | 51 |  |  |  |  |  | Activity (SK-OV-3 [12]): 192 mm3; Activity (PC-3 [13]): 181 mm3; inhibition in vivo at 36 mg/kg (PC-3 [14]): 85.2%; inhibition in vivo at 36 mg/kg (SK-OV-3 [15]): 95%; LD50 ([11]; CB17 SCID, read-out: LD50): 28 mg/kg; LD10 ([11]; ip): 36 mg/kg
CC(=O)O[C@@H](COc1ccc(N(CCCl)CCCl)cc1)C(=O)Oc1ccc2c(c1)CC[C@@H]1[C@@H]2CC[C@]2(C)NC(=O)CC[C@@H]12 | 2 | 5.5 | 15 | 22 | 10 | 4 | 9 | 6.5 | 10 | 4.5 | 8.9 | 3 | 8.8 | 19 | 11.9 |  |  |  |  |  | 
CC(=O)O[C@@H](COc1ccc(N(CCCl)CCCl)cc1)C(=O)O[C@H]1CC[C@H]2[C@@H]3CCC4=CC(=O)NCC[C@]4(C)[C@H]3C(=O)C[C@]12C | 2.2 | 7 | 16 | 33 | 12 | 3.8 | 9 | 27 | 38 | 8.2 | 9 | 3 | 7 | 52 | 12 |  |  |  |  |  | 
C[C@]12CC(=O)[C@H]3[C@@H](CCC4=CC(=O)NCC[C@@]43C)[C@@H]1CC[C@@H]2OC(=O)CCOc1ccc(N(CCCl)CCCl)cc1 |  |  |  | 65 |  |  |  |  |  |  |  |  |  |  | 65 | 65 | 65 | 65 | 65 | 65 | IC50 (HuP-T3): 65 µM; IC50 (HeLa): 65 µM; LD20 ([11]; ip): 140; LD50 ([11]; ip): 110; T/C (P388): 356
CC(=O)O[C@@H](COc1ccc(N(CCCl)CCCl)cc1)C(=O)O[C@H]1CC[C@H]2[C@@H]3CCC4=CC(=O)NCC[C@]4(C)[C@H]3CC[C@]12C | 1.5 | 3.4 | 9 | 3.9 | 4.3 | 0.8 | 2.2 | 3.9 | 15.3 | 1.7 | 3.9 | 0.7 | 2.2 | 21.5 | 6.3 |  |  |  |  |  | 
C[C@]12CC(=O)[C@H]3[C@@H](CCC4=CC(=O)NCC[C@@]43C)[C@@H]1CC[C@@H]2OC(=O)[C@@H](N)COc1ccc(N(CCCl)CCCl)cc1 |  |  |  | 4 |  |  |  |  |  |  |  |  |  |  | 4 | 4 | 4 | 4 | 4 | 4 | inhibition in vivo at 140 µM (SK-OV-3 [16]): 110%; IC50 (HuP-T3): 4 µM; IC50 (HeLa): 4 µM; LD20 ([11]; ip): 10; LD50 ([11]; ip): 14; T/C (P388): 109.9
C[C@]12CC(=O)[C@H]3[C@@H](CCC4=CC(=O)NCC[C@@]43C)[C@@H]1CC[C@@H]2OC(=O)[C@@H](O)COc1ccc(N(CCCl)CCCl)cc1 | 6 | 11 | 28 | 36 | 21 | 3.4 | 12 | 12 | 44 | 4 | 9 | 5 | 13.2 | 68 | 56 |  |  |  |  |  | 
